Source: ChEMBL document CHEMBL1139621, “Acyclic cyanamide-based inhibitors of cathepsin K” (Bioorg Med Chem Lett, 2005)
pKi: −log10 of the molar value.

Columns and labels:
Cathepsin K [1] = target: T1, Cathepsin K (Homo sapiens, UniProt P43235); test: Inhibition constant against human cathepsin K
T1 sequence (P43235 whole entry): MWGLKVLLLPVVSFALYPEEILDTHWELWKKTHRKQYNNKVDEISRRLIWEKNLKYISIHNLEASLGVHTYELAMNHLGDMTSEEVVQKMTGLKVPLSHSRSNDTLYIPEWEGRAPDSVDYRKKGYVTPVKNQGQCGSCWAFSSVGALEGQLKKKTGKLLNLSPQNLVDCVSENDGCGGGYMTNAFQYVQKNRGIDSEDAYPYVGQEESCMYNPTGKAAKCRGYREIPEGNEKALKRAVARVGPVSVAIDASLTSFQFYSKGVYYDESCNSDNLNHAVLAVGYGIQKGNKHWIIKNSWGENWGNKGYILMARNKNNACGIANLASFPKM

Procathepsin L = Procathepsin L (Homo sapiens, UniProt P07711); test: Inhibition constant against human cathepsin L using Cbz-Phe-Arg-AMC
Chain of Procathepsin L (P07711 whole entry): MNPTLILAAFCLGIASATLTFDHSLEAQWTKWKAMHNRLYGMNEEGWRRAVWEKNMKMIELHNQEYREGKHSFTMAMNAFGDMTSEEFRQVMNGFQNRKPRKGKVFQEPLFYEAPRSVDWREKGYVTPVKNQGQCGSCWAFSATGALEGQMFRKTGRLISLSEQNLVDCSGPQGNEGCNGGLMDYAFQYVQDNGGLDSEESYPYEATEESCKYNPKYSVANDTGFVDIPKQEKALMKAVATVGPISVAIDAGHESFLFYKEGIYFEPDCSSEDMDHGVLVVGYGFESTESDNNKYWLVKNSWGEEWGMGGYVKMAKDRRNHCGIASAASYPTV

Cathepsin K [2] = target: T1, Cathepsin K; test: Inhibition constant against human cathepsin K in fluorescence assay using Cbz-Phe-Arg-AMC
Pro-cathepsin H = target: T2, Pro-cathepsin H (Homo sapiens, UniProt P09668); test: Inhibition constant against human cathepsin H using L-Arg-b-naphthalamide
T2 sequence (P09668 whole entry): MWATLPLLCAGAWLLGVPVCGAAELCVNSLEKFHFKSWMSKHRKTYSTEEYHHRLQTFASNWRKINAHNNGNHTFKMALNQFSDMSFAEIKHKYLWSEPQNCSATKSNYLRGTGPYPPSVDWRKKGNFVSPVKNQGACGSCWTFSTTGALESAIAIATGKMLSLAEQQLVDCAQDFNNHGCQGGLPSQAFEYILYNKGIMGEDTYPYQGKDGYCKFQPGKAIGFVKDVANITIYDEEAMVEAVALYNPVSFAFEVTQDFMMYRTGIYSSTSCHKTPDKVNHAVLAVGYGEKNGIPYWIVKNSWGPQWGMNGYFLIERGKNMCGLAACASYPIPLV

Cathepsin B = Cathepsin B (Homo sapiens, UniProt P07858); test: Inhibition constant against human cathepsin B in fluorescence assay using Cbz-Phe-Arg-AMC
Cathepsin K [3] = target: T3, Cathepsin K (Rattus norvegicus, UniProt O35186); test: Inhibition constant against rat cathepsin K
T3 sequence (O35186 whole entry): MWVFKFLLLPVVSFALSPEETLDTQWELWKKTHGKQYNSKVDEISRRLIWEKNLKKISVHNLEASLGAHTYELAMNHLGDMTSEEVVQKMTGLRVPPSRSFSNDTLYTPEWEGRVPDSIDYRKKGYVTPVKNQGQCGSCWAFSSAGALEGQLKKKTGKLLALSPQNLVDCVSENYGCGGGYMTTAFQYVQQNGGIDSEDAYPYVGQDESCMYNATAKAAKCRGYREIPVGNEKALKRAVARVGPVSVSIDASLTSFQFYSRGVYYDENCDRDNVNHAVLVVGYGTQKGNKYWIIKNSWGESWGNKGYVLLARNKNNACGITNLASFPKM

**Q.** With `C[C@@H](CC1CCCCC1)OC(=O)[C@@H]1CCCN1C#N` as the molecule, how does the pKi (Cathepsin K [1]) read?
**A.** 8.74

**Q.** How did the pKi (Procathepsin L) turn out when `C[C@@H](CC1CCCCC1)OC(=O)CN(C)C#N` was run?
**A.** 5.82

**Q.** And the pKi (Cathepsin K [2])?
**A.** 7.59

**Q.** What about the pKi (Pro-cathepsin H) of the same molecule?
**A.** < 4.89

**Q.** What about the pKi (Cathepsin B) of the same molecule?
**A.** 5.59

**Q.** How did the pKi (Cathepsin K [2]) turn out when `C[C@@H](CC1CCCCC1)OC(=O)[C@H](C)N(C)C#N` was run?
**A.** 5.64

**Q.** How did the pKi (Cathepsin K [2]) turn out when `C[C@H](C#N)NC(=O)O[C@@H](C)CC1CCCCC1` was run?
**A.** < 4.89

**Q.** `CCCCN(C#N)NC(=O)O[C@@H](C)CC1CCCCC1` was tested. Which pKi (Cathepsin K [2]) did it give?
**A.** 11.15

**Q.** What does the source list for `C[C@@H](CC1CCCCC1)OC(=O)NN(C)C#N`?
**A.** pKi (Procathepsin L): 10.60; pKi (Cathepsin K [2]): 11.05; pKi (Pro-cathepsin H): 8.85; pKi (Cathepsin B): 10.11

**Q.** `CCN(C#N)NC(=O)O[C@@H](C)CC1CCCCC1` was tested. Which pKi (Cathepsin K [2]) did it give?
**A.** 11.52

**Q.** `C[C@@H](C#N)NC(=O)O[C@@H](C)CC1CCCCC1` was tested. Which pKi (Cathepsin K [2]) did it give?
**A.** < 4.89

**Q.** `C[C@H](C(=O)O[C@@H](C)CC1CCCCC1)N(C)C#N` was tested. Which pKi (Cathepsin K [2]) did it give?
**A.** < 4.89

**Q.** How did the pKi (Cathepsin K [2]) turn out when `C[C@@H](CC1CCCCC1)OC(=O)NCC#N` was run?
**A.** 5.10

**Q.** With `CC[C@@H](Cc1ccccc1)OC(=O)NN(C)C#N` as the molecule, how does the pKi (Procathepsin L) read?
**A.** 10.44

**Q.** What about the pKi (Cathepsin K [2]) of the same molecule?
**A.** 10.49

**Q.** What about the pKi (Cathepsin B) of the same molecule?
**A.** 9.60

**Q.** What about the pKi (Cathepsin K [3]) of the same molecule?
**A.** 10.14

**Q.** `C[C@@H](CC1CCCCC1)OC(=O)NN(C#N)C(C)(C)C` was tested. Which pKi (Cathepsin K [2]) did it give?
**A.** 5.82

**Q.** How did the pKi (Cathepsin K [2]) turn out when `CC(C)CN(C#N)NC(=O)O[C@@H](C)CC1CCCCC1` was run?
**A.** 11.40

**Q.** `CCCN(C#N)NC(=O)O[C@@H](C)CC1CCCCC1` was tested. Which pKi (Cathepsin K [2]) did it give?
**A.** 11.40

**Q.** With `C[C@@H](CC1CCCCC1)OC(=O)N(C)N(C)C#N` as the molecule, how does the pKi (Cathepsin K [2]) read?
**A.** 7.21

**Q.** `CC(C)(C)OC(=O)[C@@H]1CCCN1C#N` was tested. Which pKi (Cathepsin K [1]) did it give?
**A.** 7.22

**Q.** With `C[C@@H](CC1CCCCC1)NC(=O)CN(C)C#N` as the molecule, how does the pKi (Cathepsin K [2]) read?
**A.** 6.08

**Q.** `CC(C)N(C#N)NC(=O)O[C@@H](C)CC1CCCCC1` was tested. Which pKi (Procathepsin L) did it give?
**A.** 9.10

**Q.** What about the pKi (Cathepsin K [2]) of the same molecule?
**A.** 10.72

**Q.** What about the pKi (Pro-cathepsin H) of the same molecule?
**A.** 9.34

**Q.** And the pKi (Cathepsin B)?
**A.** 8.89

**Q.** With `C[C@@H](CC1CCCCC1)OC(=O)NN(C#N)Cc1ccccc1` as the molecule, how does the pKi (Cathepsin K [2]) read?
**A.** 11.22

**Q.** With `N#CN1CCCC1` [CYANO-PYRROLIDINE] as the molecule, how does the pKi (Cathepsin K [1]) read?
**A.** 5.68
